Results on 36 molecules are retold here after patent US9884832B2 (priority 2011, dated 2018).

AM2 S31 (wild-type serine at position 31 in the M2 protein), influenza virus A/Udorn/72, sequence (P0DOF5 whole entry, looked up): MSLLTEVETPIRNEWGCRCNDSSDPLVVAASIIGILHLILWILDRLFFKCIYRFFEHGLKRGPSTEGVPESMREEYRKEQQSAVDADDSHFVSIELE

One assay addresses AM2 S31 (wild-type serine at position 31 in the M2 protein), influenza virus A/Udorn/72 (Influenza A virus, UniProt P0DOF5). As to the kind of experiment: cell-based. The conditions noted are these: 100 uM; Xenopus oocytes; activity range class; read-out: S31 OOcyte Inhibition at 100 uM (%).
For the molecule `COc1ccc(-c2nc(CNC34CC5CC(CC(C5)C3)C4)no2)cc1` [Example 126a, N-((5-(4-methoxyphenyl)-1,2,4-oxadiazol-3-yl)methyl)adamantan-1-amine], the inhibition at 100 µM is 0 to 30%.

As to `c1cc(CNC23CC4CC(CC(C4)C2)C3)co1` [Example 66a, Adamantan-1-yl-furan-3-ylmethyl-amine], the inhibition at 100 µM was 31 to 95%.

As to `C1CCC(c2nc(CNC34CC5CC(CC(C5)C3)C4)no2)C1` [Example 109a, N-((5-cyclopentyl-1,2,4-oxadiazol-3-yl)methyl)adamantan-1-amine], the inhibition at 100 µM is 0 to 30%.

On to `CCc1ccc(CNC23CC4CC(CC(C4)C2)C3)s1` [Example 98a, N-((5-ethylthiophen-2-yl)methyl)adamantan-1-amine], for which the inhibition at 100 µM fell in the range of 31 to 95%.

Consider `c1ccc2cc(COc3ccc(CNC45CC6CC(CC(C6)C4)C5)cc3)ccc2c1` [Example 38a, N-(4-(naphthalen-2-ylmethoxy)benzyl)adamantan-1-amine], for which the inhibition at 100 µM fell in the range of 0 to 30%.

Regarding `Brc1ccc(-c2ccc(CNC34CC5CC(CC(C5)C3)C4)s2)s1` [Example 159a, N-((5′-bromo-[2,2′-bithiophen]-5-yl)methyl)adamantan-1-amine], the inhibition at 100 µM lay within 0 to 30%.

For `c1csc(-c2noc(CNC34CC5CC(CC(C5)C3)C4)n2)c1` [Example 148a, N-((3-(thiophen-2-yl)-1,2,4-oxadiazol-5-yl)methyl)adamantan-1-amine], the inhibition at 100 µM is 0 to 30%.

Regarding `Cc1ccc(-c2nc(CNC34CC5CC(CC(C5)C3)C4)no2)cc1` [Example 128a, N-((5-(p-tolyl)-1,2,4-oxadiazol-3-yl)methyl)adamantan-1-amine], the inhibition at 100 µM fell in the range of 0 to 30%.

Regarding `Oc1c(CNC23CC4CC(CC(C4)C2)C3)ccc2ccccc12` [Example 53a, 2-(Adamantan-1-ylaminomethyl)-naphthalen-1-ol], the inhibition at 100 µM lay in the range of 31 to 95%.

Consider `c1coc(CNC23CC4CC(CC(C4)C2)C3)c1` [Example 69a, Adamantan-1-yl-furan-2-ylmethyl-amine], for which the inhibition at 100 µM fell in the range of 31 to 95%.

With `CC(NC12CC3CC(CC(C3)C1)C2)c1cc2ccccc2s1` (stereo not drawn) [Example 178a], the inhibition at 100 µM lay within 31 to 95%.

For `Brc1cccc(CNC23CC4CC(CC(C4)C2)C3)c1` [Example 3a, N-(3-Bromobenzyl)adamantan-1-amine], the inhibition at 100 µM was 31 to 95%.

In the case of `c1csc(-c2ccc(CNC34CC5CC(CC(C5)C3)C4)nc2)c1` [Example 55a, Adamantan-1-yl-(5-thiophen-2-yl-pyridin-2-ylmethyl)-amine], the inhibition at 100 µM is 31 to 95%.

For the molecule `COC(=O)c1ccc(-c2ccc(CNC34CC5CC(CC(O)(C5)C3)C4)cc2)cc1` [Example 190a, 4′-[(3-Hydroxy-adamantan-1-ylamino)-methyl]-biphenyl-4-carboxylic acid methyl ester], the inhibition at 100 µM lay in the range of 0 to 30%.

For the molecule `C(=C\c1ccccc1)/CNC12CC3CC(CC(C3)C1)C2` [Example 199a, N-cinnamyladamantan-1-amine], the inhibition at 100 µM lay within 0 to 30%.

As for `Brc1ccc(CNC23CC4CC(CC(C4)C2)C3)o1` [Example 87a, Adamantan-1-yl-(5-bromo-furan-2-ylmethyl)-amine], the inhibition at 100 µM fell in the range of 31 to 95%.

`c1csc(-c2ccc(-c3ccc(CNC45CC6CC(CC(C6)C4)C5)s3)s2)c1` [Example 157a, N-([2,2′:5′,2″-terthiophen]-5-ylmethyl)adamantan-1-amine]: the inhibition at 100 µM lay in the range of 0 to 30%.

On to `Cc1ccc(-c2ccc(CNC34CC5CC(CC(C5)C3)C4)s2)s1` [Example 141a, N-((5′-methyl-[2,2′-bithiophen]-5-yl)methyl)adamantan-1-amine], for which the inhibition at 100 µM lay in the range of 0 to 30%.

For `c1scc2[nH]c(CNC34CC5CC(CC(C5)C3)C4)nc12` [Example 171a, Adamantan-1-yl-(1H-thieno[3,4-d]imidazol-2-ylmethyl)-amine], the inhibition at 100 µM fell in the range of 0 to 30%.

In the case of `Oc1cccc2ccc(CNC34CC5CC(CC(C5)C3)C4)nc12` [Example 65a, 2-((adamantan-1-ylamino)methyl)quinolin-8-ol], the inhibition at 100 µM lay in the range of 31 to 95%.

Still in this assay, the particulars now being: Table 1; 100 uM; Xenopus oocytes, pH 5.5, -20 mV; read-out: S31 OOcyte Inhibition at 100 uM (%).
In the case of `Oc1ccc(CN2CC3CC4CC(C3)CC2C4)c(O)c1` [Example 116, 4-(4-Aza-tricyclo[4.3.1.13,8]undec-4-ylmethyl)-benzene-1,3-diol], the inhibition at 100 µM was 31 to 95%.

On to `Oc1ccc(/C=N/C23CC4CC(CC(C4)C2)C3)c(O)c1` [Example 7], for which the inhibition at 100 µM was 31 to 95%.

Regarding `c1ccc2[nH]c(CNC34CC5CC(CC(C5)C3)C4)cc2c1` [Example 93, Adamantan-1-yl-(1H-indol-2-ylmethyl)-amine], the inhibition at 100 µM was in the range of 0 to 30%.

In the case of `Nc1ccc(CNC23CC4CC(CC(C4)C2)C3)cc1` [Example 11, Adamantan-1-yl-(4-amino-benzyl)-amine], the inhibition at 100 µM is 31 to 95%.

With `Oc1c(CNC23CC4CC(CC(C4)C2)C3)ccc2ccccc12` [Example 97, 2-(Adamantan-1-ylaminomethyl)-naphthalen-1-ol], the inhibition at 100 µM was 31 to 95%.

In the case of `CC(C)(C)OC(=O)Nc1ccc(CNC23CC4CC(CC(C4)C2)C3)cc1` [Example 12, [4-(Adamantan-1-ylaminomethyl)-phenyl]carbamic acid tert-butyl ester], the inhibition at 100 µM lay in the range of 0 to 30%.

In the case of `Oc1ccc(CNC23CC4CC(CC(C4)C2)C3)cc1Cl` [Example 47, 4-(Adamantan-1-ylaminomethyl)-2-chloro-phenol], the inhibition at 100 µM lay in the range of 31 to 95%.

On to `CSc1ccc(CNC2C3CC4CC(C3)CC2C4)cc1` (stereo not drawn) [Example 103, Adamantan-2-yl-(4-methylsulfanyl-benzyl)-amine], for which the inhibition at 100 µM was 0 to 30%.

Consider `Oc1ccc(CNC2C3CC4CC(C3)CC2C4)c(O)c1` (stereo not drawn) [Example 100, 4-(Adamantan-2-ylaminomethyl)-benzene-1,3-diol], for which the inhibition at 100 µM fell in the range of 31 to 95%.

Staying with this assay, now noted: Table 3; 100 uM; Xenopus oocytes, pH 5.5, -20 mV; read-out: S31 OOcyte Inhibition at 100 uM (%).
In the case of `c1csc(-c2nc(CNC34CC5CC(CC(C5)C3)C4)cs2)c1` [Example 11b, N-((2-(thiophen-2-yl)thiazol-4-yl)methyl)adamantan-1-amine], the inhibition at 100 µM is 0 to 30%.

Consider `c1csc(-c2ccc(CNC34CC5CC(CC(C5)C3)C4)nn2)c1` [Example 71b, Adamantan-1-yl-(6-thiophen-2-yl-pyridazin-3-ylmethyl)-amine], for which the inhibition at 100 µM was 0 to 30%.

Take `CCOC(=O)CN(C)c1ncc(CNC23CC4CC(CC(C4)C2)C3)cn1` [Example 60b, N-((2-methyl(ethylcarboxymethyl)aminopyrimidin-5-yl)methyl)adamantan-1-amine]: the inhibition at 100 µM was in the range of 0 to 30%.

For `CC(C)c1cc(CNC23CC4CC(CC(O)(C4)C2)C3)no1` [Example 85b, (1s,3r,5R,7S)-3-(((5-isopropylisoxazol-3-yl)methyl)amino)adamantan-1-61], the inhibition at 100 µM was in the range of 0 to 30%.

Regarding `Nc1ncc(CNC23CC4CC(CC(C4)C2)C3)s1` [Example 19b], the inhibition at 100 µM is 0 to 30%.

As to `Cc1csc(-c2ccc(CNC34CC5CC(CC(C5)C3)C4)cc2)c1` [Example 5b, N-(4-(4-Methylthiophen-2-yl)benzyl)adamantan-1-amine], the inhibition at 100 µM lay within 0 to 30%.

Regarding `c1nc(C2CCCCC2)ncc1CNC12CC3CC(CC(C3)C1)C2` [Example 61b, N-((2-cyclohexylpyrimidin-5-yl)methyl)adamantan-1-amine], the inhibition at 100 µM lay in the range of 0 to 30%.
